In one series the test system is SW-620. The series is described as follows: Antiproliferative activity against human SW620 cells. The series is classed as functional.
Another series deals with NCI-H226. Briefly: Antiproliferative activity against human NCI-H226 cells. The format is functional. To be noted: Homo sapiens, NCI-H226.
A further series relates to MOLT-4. The series is described as follows: Antiproliferative activity against human MOLT4 cells. The format is functional.
A further series deals with Jurkat. Briefly: Antiproliferative activity against human Jurkat cells. The series is classed as functional.
Another series concerns NCI-H460. Briefly: Antiproliferative activity against human H460 cells. The format is functional. To be noted: Homo sapiens, NCI-H460.
The subject of another series is SW1088. Briefly: Antiproliferative activity against human SW1088 cells. The series is classed as functional.
For series [1], the target named is T1, Insulin receptor (Homo sapiens, UniProt P06213). The series is described as follows: Inhibition of human placental insulin receptor expressed in CHO cells assessed as decrease in insulin-stimulated [3H]-2-deoxyglucose uptake preincubated for 1 hr. The format is cell-based.
T1 sequence (P06213 28-758 limits assumed): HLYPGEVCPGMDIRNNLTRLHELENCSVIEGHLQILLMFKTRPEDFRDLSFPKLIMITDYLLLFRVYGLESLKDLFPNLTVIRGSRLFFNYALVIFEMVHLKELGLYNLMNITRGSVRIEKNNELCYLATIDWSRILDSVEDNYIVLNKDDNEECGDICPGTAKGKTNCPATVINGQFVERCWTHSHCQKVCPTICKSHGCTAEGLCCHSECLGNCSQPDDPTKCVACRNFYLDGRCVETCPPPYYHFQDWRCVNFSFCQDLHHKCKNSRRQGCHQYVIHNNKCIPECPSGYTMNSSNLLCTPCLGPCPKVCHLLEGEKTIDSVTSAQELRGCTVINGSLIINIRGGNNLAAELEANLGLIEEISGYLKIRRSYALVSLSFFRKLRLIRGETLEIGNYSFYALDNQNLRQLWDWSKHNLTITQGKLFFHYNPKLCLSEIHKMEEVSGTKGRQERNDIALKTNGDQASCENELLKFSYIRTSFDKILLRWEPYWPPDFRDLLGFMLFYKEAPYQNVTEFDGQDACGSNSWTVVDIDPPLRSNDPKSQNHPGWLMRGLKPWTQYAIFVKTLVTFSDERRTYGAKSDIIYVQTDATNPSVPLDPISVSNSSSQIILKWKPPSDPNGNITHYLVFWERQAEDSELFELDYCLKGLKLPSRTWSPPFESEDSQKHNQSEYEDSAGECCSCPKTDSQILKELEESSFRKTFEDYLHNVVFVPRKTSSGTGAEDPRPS
T1 sequence (P06213 763-1382 limits assumed): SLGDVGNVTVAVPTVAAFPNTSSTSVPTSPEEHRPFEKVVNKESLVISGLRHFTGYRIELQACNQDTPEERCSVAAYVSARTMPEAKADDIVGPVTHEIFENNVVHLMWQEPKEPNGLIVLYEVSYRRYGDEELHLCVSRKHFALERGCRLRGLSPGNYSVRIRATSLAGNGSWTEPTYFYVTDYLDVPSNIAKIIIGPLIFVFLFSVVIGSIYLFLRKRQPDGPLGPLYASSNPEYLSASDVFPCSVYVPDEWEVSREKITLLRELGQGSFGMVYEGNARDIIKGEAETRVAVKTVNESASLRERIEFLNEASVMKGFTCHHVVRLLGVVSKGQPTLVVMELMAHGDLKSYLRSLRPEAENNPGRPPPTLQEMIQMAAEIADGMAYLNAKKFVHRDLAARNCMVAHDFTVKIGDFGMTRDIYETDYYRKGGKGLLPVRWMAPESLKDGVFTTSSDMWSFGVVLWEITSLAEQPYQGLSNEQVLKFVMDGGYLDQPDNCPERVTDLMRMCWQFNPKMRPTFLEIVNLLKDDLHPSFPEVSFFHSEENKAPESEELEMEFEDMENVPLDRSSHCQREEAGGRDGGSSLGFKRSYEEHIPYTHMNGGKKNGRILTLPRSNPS
Series [2] has as its target T1, Insulin receptor. Briefly: Non-competitive inhibition of human placental insulin receptor expressed in CHO cell membrane assessed as decrease in insulin-stimulated A2 phosphorylation preincubated for 15 mins followed by substrate addition and measured after 15 mins in presence of [gamma-32P]ATP by Dixon plot analysis. The series is classed as cell-based.
For a further series, the system named is GL261 (Mus musculus). Briefly: Antiproliferative activity against mouse GL261 cells.
The next series concerns T98G. Briefly: Antiproliferative activity against human T98G cells. The format is functional.
In a further series the test system is U138-MG. Briefly: Antiproliferative activity against human U138MG cells. The format is functional.
Series [3] can be described thus: Ratio of AUC in brain to plasma of mouse at 20 mg/kg, po. The series is classed as ADME, organism-based. To be noted: brain and plasma, read-out: Ratio AUC.
Series [4] is described as follows: Oral bioavailability in mouse. The series is classed as ADME, organism-based. To be noted: in vivo.
Another series concerns LN-18. The series is described as follows: Antiproliferative activity against human LN18 cells. The format is functional.
The test system of a further series is SK-N-MC. Briefly: Antiproliferative activity against human SK-N-MC cells. The format is functional.
Series [5] in a line: Antiproliferative activity against human U373 cells. The format is functional, U-373MG ATCC. To be noted: U373 MG.
The subject of another series is GL261. Briefly: Antitumor activity against mouse GL261 cells implanted in mouse assessed as incidence of long term survival (>100 days) at 30 mg/kg, po qd relative to control. The series is classed as functional.
Another series has as its system SK-N-FI. The series is described as follows: Antiproliferative activity against human SK-N-FI cells. The format is functional.
Series [6] in a line: Half life in mouse. To be noted: in vivo. The series is classed as ADME, organism-based.
In series [7] the target is Proto-oncogene tyrosine-protein kinase Src (Homo sapiens, UniProt P12931). Briefly: Inhibition of Src (unknown origin).
Proto-oncogene tyrosine-protein kinase Src (Homo sapiens, UniProt P12931), sequence (P12931 2-536 limits assumed): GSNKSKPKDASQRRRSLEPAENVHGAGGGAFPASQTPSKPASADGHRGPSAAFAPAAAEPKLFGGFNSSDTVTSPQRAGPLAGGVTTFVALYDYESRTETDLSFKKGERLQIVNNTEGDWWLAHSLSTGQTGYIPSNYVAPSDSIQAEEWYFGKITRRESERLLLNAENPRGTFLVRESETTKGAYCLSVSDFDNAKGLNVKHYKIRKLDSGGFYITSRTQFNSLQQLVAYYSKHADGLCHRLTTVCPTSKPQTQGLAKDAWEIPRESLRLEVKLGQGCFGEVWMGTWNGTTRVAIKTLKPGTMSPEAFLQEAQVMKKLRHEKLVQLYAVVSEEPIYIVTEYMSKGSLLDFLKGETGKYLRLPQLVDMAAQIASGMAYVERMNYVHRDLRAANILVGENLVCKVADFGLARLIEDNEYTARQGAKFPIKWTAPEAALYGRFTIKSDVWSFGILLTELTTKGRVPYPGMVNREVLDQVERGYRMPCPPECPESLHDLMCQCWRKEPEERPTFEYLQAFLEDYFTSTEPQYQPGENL
In a further series the test system is U-118-MG. The series is described as follows: Antiproliferative activity against human U118MG cells. The series is classed as functional.
In the next series the test system is Daoy. Briefly: Antiproliferative activity against human DaOY cells. The format is functional.
For series [8], the target named is Proto-oncogene tyrosine-protein kinase Src (Mus musculus, UniProt P05480). The series is described as follows: Inhibition of Src autophosphorylation in mouse GL261 cells. The series is classed as cell-based.
Proto-oncogene tyrosine-protein kinase Src (Mus musculus, UniProt P05480), sequence (P05480 2-535 limits assumed): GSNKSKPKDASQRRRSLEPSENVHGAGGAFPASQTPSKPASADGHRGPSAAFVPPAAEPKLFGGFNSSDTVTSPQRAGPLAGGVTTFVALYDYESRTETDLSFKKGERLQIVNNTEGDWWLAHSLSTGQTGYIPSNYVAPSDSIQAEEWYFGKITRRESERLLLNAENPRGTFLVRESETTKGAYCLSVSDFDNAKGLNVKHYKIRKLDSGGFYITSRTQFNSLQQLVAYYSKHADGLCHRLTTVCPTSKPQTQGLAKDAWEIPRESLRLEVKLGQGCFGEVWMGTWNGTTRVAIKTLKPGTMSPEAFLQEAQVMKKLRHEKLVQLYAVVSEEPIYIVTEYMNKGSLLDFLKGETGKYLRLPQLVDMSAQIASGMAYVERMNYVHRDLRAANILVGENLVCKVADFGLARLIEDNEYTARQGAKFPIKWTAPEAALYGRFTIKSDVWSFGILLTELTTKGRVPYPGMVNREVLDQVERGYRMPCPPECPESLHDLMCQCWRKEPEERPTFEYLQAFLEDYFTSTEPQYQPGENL
Series [9] is described as follows: Oral bioavailability in mouse at 20 mg/kg. The format is ADME, organism-based. To be noted: in vivo.
The test system of the next series is U-87 MG. The series is described as follows: Antiproliferative activity against human U87 cells. The series is classed as functional, U-87MG ATCC.
Another series relates to HT-29. The series is described as follows: Antiproliferative activity against human HT-29 cells in presence of 1.5% FCS by BrdU incorporation assay. The format is functional, cell-based.
The subject of a further series is KM12. The series is described as follows: Antiproliferative activity against human KM12 cells by BrdU incorporation assay. The format is functional. On the technique in general: Incorporation of labelled thymidine or its analogues reports DNA synthesis.

The source of these data is ChEMBL document CHEMBL4371003, “Discovery of Novel Dual Mechanism of Action Src Signaling and Tubulin Polymerization Inhibitors (KX2-391 and KX2-361)” (J Med Chem, 2018).

Each structure is given as a SMILES string.

The molecule `Cc1nc(Nc2ncc(C(=O)Nc3c(C)cccc3Cl)s2)cc(N2CCN(CCO)CC2)n1.O` [DASATINIB] registered a GI90 with SW-620 of 2.94 µM. The GI50 (as a rule, the concentration at which growth is held to half of that of the control) came out at 2.42 µM in the series on SW-620 (Homo sapiens, SW-620); 0.163 µM with NCI-H226; 0.644 µM in the series with MOLT-4; 0.008 µM with Jurkat; 0.09 µM in the series with NCI-H460; 0.898 µM in the series on SW1088.

Turning to `O=P(O)(O)C(O)c1ccc2ccccc2c1` (stereo not drawn), the IC50 – broadly, the concentration needed to halve the response being measured – on Insulin receptor [1] is 10 µM. Moreover, the Ki (usually a dissociation constant, usually derived from enzyme kinetics or from competition with a known ligand) at Insulin receptor [2] came out at 95 µM.

`O=C(Cc1ccc(-c2ccc(N3CCOCC3)cc2)cn1)NCc1cccc(F)c1` [KX2-361]: the GI50 in the series on GL261 (Mus musculus) came to 0.057 µM; in the series with T98G, 0.014 µM; with U138-MG, 0.051 µM; in the series with LN-18, 0.0029 µM; with SK-N-MC it was 0.008 µM; in series [5], 0.054 µM. In addition, the GI50 amounted to 0.011 µM in the series on SK-N-FI; 0.026 µM in the series with SW1088; 0.029 µM in the series with U-118-MG; 0.016 µM in the series with Daoy; 0.076 µM in the series on U-87 MG. In addition, in series [3], the Kp is 1.16. Moreover, the bioavailability in [4] and in series [9] was 40% each time. The Activity with GL261 is recorded as 30%. Also, the half-life – broadly, how long it takes for the measured level to halve – in [6] is 2.5 h. Moreover, the IC50 in series [7] was 67 µM; in series [8], 0.06 µM.

`O=C(Cc1ccc(-c2ccccc2)cn1)NCc1cccc(F)c1`: in series [4], the bioavailability (as a rule, the share of a dose that reaches the circulation, judged against a reference dose that is usually intravenous) was 4%. For the same molecule, the IC50 in the series on HT-29 was 0.338 µM.

`O=C(Cc1ccc(-c2ccc(OCCN3CCOCC3)cc2)cn1)NCc1cccc(F)c1` came in with a bioavailability in series [4] of 64%. Besides, in the series on HT-29, the IC50 turned out to be 0.111 µM.

The molecule `O=C(Cc1ccc(-c2ccccc2)cc1)NCc1cccc(F)c1` came in with a GI50 in the series on KM12 of 0.41 µM. Moreover, the IC50 in the series on HT-29 is 0.877 µM.
